Consider 22 compounds from patent US10081624B2, “Heterocyclic compound” (Takeda Pharmaceutical Company Limited, priority 2014, dated 2018).

Structures are written as SMILES.

The target of this experiment is T1, HDAC6 enzyme (Homo sapiens, UniProt Q9UBN7).
T1 construct: prepared by transducing full length HDAC1 and HDAC6 genes into Sf-9 insect cells; GST; purchased SignalChem; host or cells: Sf-9 insect cells
T1 sequence (Q9UBN7 1-1215): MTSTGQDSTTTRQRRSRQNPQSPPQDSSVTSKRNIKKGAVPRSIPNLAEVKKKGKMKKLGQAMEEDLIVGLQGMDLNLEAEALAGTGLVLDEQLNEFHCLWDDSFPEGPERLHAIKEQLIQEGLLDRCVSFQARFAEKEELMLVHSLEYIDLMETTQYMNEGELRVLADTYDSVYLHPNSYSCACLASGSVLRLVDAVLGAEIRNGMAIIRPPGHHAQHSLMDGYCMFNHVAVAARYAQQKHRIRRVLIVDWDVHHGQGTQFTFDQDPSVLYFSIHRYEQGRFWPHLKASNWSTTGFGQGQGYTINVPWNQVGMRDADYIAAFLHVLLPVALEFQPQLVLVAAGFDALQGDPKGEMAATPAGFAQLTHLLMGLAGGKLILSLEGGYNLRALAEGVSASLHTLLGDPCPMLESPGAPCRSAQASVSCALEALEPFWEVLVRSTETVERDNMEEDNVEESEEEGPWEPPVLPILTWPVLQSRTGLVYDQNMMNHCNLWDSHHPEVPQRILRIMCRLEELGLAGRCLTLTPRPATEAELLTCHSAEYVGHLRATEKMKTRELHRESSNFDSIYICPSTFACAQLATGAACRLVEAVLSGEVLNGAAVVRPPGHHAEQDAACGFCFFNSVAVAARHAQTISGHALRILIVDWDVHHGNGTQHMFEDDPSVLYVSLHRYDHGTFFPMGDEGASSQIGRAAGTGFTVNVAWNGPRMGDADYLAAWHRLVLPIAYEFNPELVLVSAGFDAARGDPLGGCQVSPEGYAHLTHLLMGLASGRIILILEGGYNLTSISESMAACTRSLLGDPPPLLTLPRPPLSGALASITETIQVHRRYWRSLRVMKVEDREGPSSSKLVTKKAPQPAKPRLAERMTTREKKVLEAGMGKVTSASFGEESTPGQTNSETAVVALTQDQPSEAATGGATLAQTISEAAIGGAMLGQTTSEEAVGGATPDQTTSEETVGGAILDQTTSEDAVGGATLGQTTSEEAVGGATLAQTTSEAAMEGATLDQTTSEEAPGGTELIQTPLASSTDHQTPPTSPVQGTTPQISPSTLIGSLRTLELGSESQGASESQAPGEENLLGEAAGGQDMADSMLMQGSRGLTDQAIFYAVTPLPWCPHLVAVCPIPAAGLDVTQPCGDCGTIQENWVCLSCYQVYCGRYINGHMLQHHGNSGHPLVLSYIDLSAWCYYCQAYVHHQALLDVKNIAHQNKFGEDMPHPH
Kind of experiment: HDAC6 enzyme inhibitory assay (HDAC-Glo I/II Assay kit). The experiment is classed as biochemical. The note with it: 1 μM test compound; read-out: HDAC6 inhibitory rate (%) (1 μM). As to the method:
HDAC1 enzyme and HDAC6 enzyme each prepared by transducing full length HDAC1 and HDAC6 genes into Sf-9 insect cells and purifying by GST affinity column were purchased from SignalChem. Using these enzymes, HDAC1 and/or HDAC6 enzyme inhibitory activities of the compound of the present invention were evaluated. Enzymes were used after preserved at −70° C. HDAC1 or HDAC6 enzyme inhibitory activity of the compound of the present invention was measured using HDAC-Glo™ I/II Assay kit (Promega) according to the following experimental method. The test compound diluted with assay buffer (24 mM Tris-HCl (pH 7.5), 1 mM MgCl2, 0.35 mM KCl, 135 mM NaCl, 0.6 mM Glutathione, 0.01% Tween-20) was added to a 384-well plate by each 2 μL. Then, HDAC1 or HDAC6 enzyme solution diluted with assay buffer was added thereto by each 4 μL, and the plate was incubated at room temperature for 60 min. After incubated, HDAC substrate-Developer solution prepared according to Promega protocol attached to the assay kit was added to the 384-well plate by each 2 μL, and the enzyme reaction was started. After reacting at room temperature for 20 min, luminescence level was measured using plate reader Envision (PerkinElmer). The inhibitory activity of each compound was calculated as a relative activity value when luminescence level in wells without enzyme is considered as 100% inhibition.
Regarding `COc1cccc(C(=O)N2CCOCC2CNC(=O)c2ccc(-c3noc(C(F)(F)F)n3)cc2)c1` (stereo in doubt) [Example 114, N-(((3R)-4-(3-methoxybenzoyl)morpholin-3-yl)methyl)-4-(5-(trifluoromethyl)-1,2,4-oxadiazol-3-yl)benzamide], the inhibition at 1 µM came out at 92%.

For the compound `N#Cc1ccccc1C(=O)N1CCOCC1CNC(=O)c1ccc(-c2noc(C(F)(F)F)n2)cc1` (stereo in doubt) [Example 115, N-(((3R)-4-(2-cyanobenzoyl)morpholin-3-yl)methyl)-4-(5-(trifluoromethyl)-1,2,4-oxadiazol-3-yl)benzamide], the inhibition at 1 µM was 94%.

Turning to `N#Cc1cccc(C(=O)N2CCOCC2CNC(=O)c2ccc(-c3noc(C(F)(F)F)n3)cc2)c1` (stereo in doubt) [Example 116, N-(((3R)-4-(3-cyanobenzoyl)morpholin-3-yl)methyl)-4-(5-(trifluoromethyl)-1,2,4-oxadiazol-3-yl)benzamide], the inhibition at 1 µM came to 91%.

Turning to `N#Cc1ccc(C(=O)N2CCOCC2CNC(=O)c2ccc(-c3noc(C(F)(F)F)n3)cc2)cc1` (stereo in doubt) [Example 117, N-(((3R)-4-(4-cyanobenzoyl)morpholin-3-yl)methyl)-4-(5-(trifluoromethyl)-1,2,4-oxadiazol-3-yl)benzamide], the inhibition at 1 µM is 93%.

`O=C(NCC1COCCN1C(=O)c1ccncc1)c1ccc(-c2noc(C(F)(F)F)n2)cc1` (stereo in doubt) [Example 120, N-(((3R)-4-isonicotinoylmorpholin-3-yl)methyl)-4-(5-(trifluoromethyl)-1,2,4-oxadiazol-3-yl)benzamide]: the inhibition at 1 µM was found to be 96%.

As for `Cc1cc(C(=O)N2CCOCC2CNC(=O)c2ccc(-c3noc(C(F)(F)F)n3)cc2)ccn1` (stereo in doubt) [Example 121, N-(((3R)-4-(2-methylisonicotinoyl)morpholin-3-yl)methyl)-4-(5-(trifluoromethyl)-1,2,4-oxadiazol-3-yl)benzamide], the inhibition at 1 µM came out at 87%.

For `O=C(NCC1COCCN1C(=O)Nc1ccccc1)c1ccc(-c2noc(C(F)(F)F)n2)cc1` (stereo not shown) [Example 2, N-phenyl-3-(((4-(5-(trifluoromethyl)-1,2,4-oxadiazol-3-yl)benzoyl)amino)methyl)morpholine-4-carboxamide], the inhibition at 1 µM turned out to be 86%.

On to `Cn1ccnc1C(=O)N1CCOCC1CNC(=O)c1ccc(-c2noc(C(F)(F)F)n2)cc1` (stereo not shown) [Example 16, N-((4-((1-methyl-1H-imidazol-2-yl)carbonyl)morpholin-3-yl)methyl)-4-(5-(trifluoromethyl)-1,2,4-oxadiazol-3-yl)benzamide], for which the inhibition at 1 µM was determined as 93%.

Regarding `Cn1cnc(C(=O)N2CCOCC2CNC(=O)c2ccc(-c3noc(C(F)(F)F)n3)cc2)c1` (stereo not shown) [Example 17, N-((4-((1-methyl-1H-imidazol-4-yl)carbonyl)morpholin-3-yl)methyl)-4-(5-(trifluoromethyl)-1,2,4-oxadiazol-3-yl)benzamide], the inhibition at 1 µM was 61%.

As to `Cc1cc(C(=O)N2CCOC[C@@H]2CNC(=O)c2ccc(-c3noc(C(F)(F)F)n3)cc2)cc(O)n1` [Example 50, N-(((3S)-4-(2-hydroxy-6-methylisonicotinoyl)morpholin-3-yl)methyl)-4-(5-(trifluoromethyl)-1,2,4-oxadiazol-3-yl)benzamide], the inhibition at 1 µM came out at 95%.

For `O=C(NC[C@H]1COCCN1C(=O)c1cc2ccccc2o1)c1ccc(-c2noc(C(F)(F)F)n2)cc1` [Example 53, N-(((3S)-4-(1-benzofuran-2-ylcarbonyl)morpholin-3-yl)methyl)-4-(5-(trifluoromethyl)-1,2,4-oxadiazol-3-yl)benzamide], the inhibition at 1 µM amounted to 95%.

Turning to `O=C(NC[C@H]1COCCN1C(=O)c1cc2ncccn2n1)c1ccc(-c2noc(C(F)(F)F)n2)cc1` [Example 54, N-(((3S)-4-(pyrazolo[1,5-a]pyrimidin-2-ylcarbonyl)morpholin-3-yl)methyl)-4-(5-(trifluoromethyl)-1,2,4-oxadiazol-3-yl)benzamide], the inhibition at 1 µM was determined as 95%.

For `O=C(NC[C@H]1COCCN1C(=O)C(c1ccccc1)c1ccccc1)c1ccc(-c2noc(C(F)(F)F)n2)cc1` [Example 57, N-(((3S)-4-(diphenylacetyl)morpholin-3-yl)methyl)-4-(5-(trifluoromethyl)-1,2,4-oxadiazol-3-yl)benzamide], the inhibition at 1 µM was 56%.

For the compound `O=C(NC[C@H]1COCCN1C(=O)COc1ccccc1)c1ccc(-c2noc(C(F)(F)F)n2)cc1` [Example 58, N-(((3S)-4-(phenoxyacetyl)morpholin-3-yl)methyl)-4-(5-(trifluoromethyl)-1,2,4-oxadiazol-3-yl)benzamide], the inhibition at 1 µM was found to be 93%.

Consider `Cc1cc(C(=O)N2CCOC[C@@H]2CNC(=O)c2ccc(-c3noc(C(F)(F)F)n3)cc2)on1` [Example 62, N-(((3S)-4-((3-methyl-1,2-oxazol-5-yl)carbonyl)morpholin-3-yl)methyl)-4-(5-(trifluoromethyl)-1,2,4-oxadiazol-3-yl)benzamide], for which the inhibition at 1 µM amounted to 93%.

On to `Cn1ccc(C(=O)N2CCOC[C@@H]2CNC(=O)c2ccc(-c3noc(C(F)(F)F)n3)cc2)n1` [Example 65, N-(((3S)-4-((1-methyl-1H-pyrazol-3-yl)carbonyl)morpholin-3-yl)methyl)-4-(5-(trifluoromethyl)-1,2,4-oxadiazol-3-yl)benzamide], for which the inhibition at 1 µM was determined as 75%.

Take `Cn1cc(C(=O)N2CCOC[C@@H]2CNC(=O)c2ccc(-c3noc(C(F)(F)F)n3)cc2)cn1` [Example 66, N-(((3S)-4-((1-methyl-1H-pyrazol-4-yl)carbonyl)morpholin-3-yl)methyl)-4-(5-(trifluoromethyl)-1,2,4-oxadiazol-3-yl)benzamide]: the inhibition at 1 µM is 88%.

`O=C(NC[C@H]1COCCN1C(=O)c1cc[nH]n1)c1ccc(-c2noc(C(F)(F)F)n2)cc1` [Example 71, N-(((3S)-4-(1H-pyrazol-3-ylcarbonyl)morpholin-3-yl)methyl)-4-(5-(trifluoromethyl)-1,2,4-oxadiazol-3-yl)benzamide]: the inhibition at 1 µM was found to be 89%.

In the case of `Cc1ccc(C(=O)N2CCOC[C@@H]2CNC(=O)c2ccc(-c3noc(C(F)(F)F)n3)cc2)s1` [Example 72, N-(((3S)-4-((5-methyl-2-thienyl)carbonyl)morpholin-3-yl)methyl)-4-(5-(trifluoromethyl)-1,2,4-oxadiazol-3-yl)benzamide], the inhibition at 1 µM stood at 89%.

As for `Cc1csc(C(=O)N2CCOC[C@@H]2CNC(=O)c2ccc(-c3noc(C(F)(F)F)n3)cc2)c1` [Example 73, N-(((3S)-4-((4-methyl-2-thienyl)carbonyl)morpholin-3-yl)methyl)-4-(5-(trifluoromethyl)-1,2,4-oxadiazol-3-yl)benzamide], the inhibition at 1 µM came out at 98%.

For the compound `O=C(NC[C@H]1COCCN1C(=O)C1CC1)c1ccc(-c2noc(C(F)(F)F)n2)cc1` [Example 75, N-(((3S)-4-(cyclopropylcarbonyl)morpholin-3-yl)methyl)-4-(5-(trifluoromethyl)-1,2,4-oxadiazol-3-yl)benzamide], the inhibition at 1 µM amounted to 92%.

`O=C(NC[C@H]1COCCN1C(=O)CC1CC1)c1ccc(-c2noc(C(F)(F)F)n2)cc1` [Example 76, N-(((3S)-4-(cyclopropylacetyl)morpholin-3-yl)methyl)-4-(5-(trifluoromethyl)-1,2,4-oxadiazol-3-yl)benzamide]: the inhibition at 1 µM was 90%.
